Experimental data published in paper PMC10692721, “Drug discovery for heart failure targeting myosin-binding protein C” (The Journal of Biological Chemistry, 2023).
“Also recorded” adds a separate entry of the source.

What was measured:
[1] = system: fC1-C2 binding to Alexa Fluor 568-actin; assay: AF568-actin-MyBP-C FLT binding assay (Fig. S1); settings: Suramin 20 µM, NF023 50 µM, ATA 20 µM
[2] = system: TMR-MyBP-C (cC0-C2, sC1-C2S, sC1-C2L, fC1-C2); assay: Compound effects on TMR-MyBP-C lifetime (Fig. S2); type: binding; settings: Suramin 20 µM, NF023 50 µM, ATA 20 µM
Description: For FLT-TMR experiments, the same samples were excited at 532 nm.
Compound effects on TMR-MyBP-C lifetime. […] All values are the average ± SD. n=5.

[3] = system: PKA-phosphorylated TMR-cC0-C2 (cC0-C2#P); assay: FLT-TMR concentration-response assay, PKA-phosphorylated cC0-C2; type: binding, human; settings: 60 μM compound
How it was run: (§1)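 Hits tested at eight concentrations (0.5–100 μM) and read on a high-throughput fluorescence lifetime plate reader. Hill fits applied only under certain conditions.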

[4] = system: TMR-fC1-C2 (C1-C2 of fast skeletal MyBP-C); assay: FLT-TMR concentration-response assay, fC1-C2; type: binding; settings: for cC0-C2/fC1-C2 (ratio of FLT changes) / fC1-C2 FLT change (% change from DMSO, FLT of TMR-MyBP-C): 60 μM compound
How it was run: as §1

[5] = system: FMAL-actin plus TMR-cC0-C2; assay: Selleck library HTS, 473 nm excitation (FLT of FMAL-actin with TMR-cC0-C2, FLT-FRET); type: binding, human; settings: for 473-nm Δτ, Repeat 1 / 473-nm Δτ, Repeat 2: initial screen, 30 μM compound; for 473-nm z-score (based on avg Δτ): robust z-score, hit threshold ±4, 30 μM compound
How it was run: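 Donor fluorescence lifetime was then recorded. Waveforms were fit to a single exponential, and ΔFLT was obtained after a moving-median plate-gradient correction (half-row window), rescaled by the median DMSO lifetime.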

[6] = system: TMR-cC0-C2 (C0-C2 fragment of human cMyBP-C); assay: FLT-TMR concentration-response assay (FLT of TMR on cC0-C2, no actin); type: binding; settings: for cC0-C2/cC0-C2#P (ratio of FLT changes) / cC0-C2 FLT change (% change from DMSO, FLT of TMR-MyBP-C): 60 μM compound
How it was run: as §1

[7] = system: FMAL-actin/TMR-fC1-C2 interaction; assay: FLT-FRET concentration-response assay, FMAL-actin plus TMR-fC1-C2; type: binding
Procedure: (§2) Compounds identified as initial hits were further examined to determine the concentration–response curves for seven conditions ([1]): FMAL-actin alone identified actin-binding compounds that alter the FLT of FMAL-actin ([2]).
(§3) Fluorescence lifetime (FLT) measurements were acquired using a high-throughput FLT plate reader (Fluorescence Innovations, Inc) ([14], [27]), provided by Photonic Pharma LLC. […] The observed waveforms were analyzed as described previously ([15], [28]).
(§4) The primary hits were dissolved in DMSO to make a 10 mM stock solution, which was serially diluted in 96-well mother plates. Hits were screened at eight concentrations (0.5–100 μM). […] Compounds (1 μl) were transferred from the mother plates into 384-well plates using a Mosquito HV liquid handler (TTP Labtech Ltd, Hertfordshire, UK). The same procedure of dispensing as for the pilot screening was applied in the concentration-response assays. Concentration dependence of the FLT-FRET (E/EDMSO) or FLT-TMR (Δτ) change data was fit to a Hill equation only under certain conditions to help guide the eye (Fig. 4).

[8] = system: FMAL-actin/PKA-phosphorylated TMR-cC0-C2 interaction; assay: FLT-FRET concentration-response assay, FMAL-actin plus PKA-phosphorylated TMR-cC0-C2; type: binding, human; settings: phosphorylated cC0-C2
Procedure: as §2, §3, §4

TMR-cC0-C2 = assay: Selleck library HTS, 532 nm excitation (FLT of TMR-cC0-C2 in presence of FMAL-actin); type: binding, human; settings: for 532-nm Δτ, Repeat 1 / 532-nm Δτ, Repeat 2: initial screen, 30 μM compound; for 532-nm z-score (based on avg Δτ): robust z-score, hit threshold ±4, 30 μM compound
[9] = system: FMAL-actin/TMR-cC0-C2 interaction; assay: FLT-FRET concentration-response assay, FMAL-actin plus TMR-cC0-C2; type: binding, human; settings: for specificity of FLT-FRET effect for unphosphorylated over phosphorylated cC0-C2: effect on cC0-C2 compared to phosphorylated cC0-C2 (Tables 1 and 2); for effect on FLT-FRET / binding between FMAL-actin and TMR-cC0-C2 (in words): unphosphorylated cC0-C2
How it was run: as §1

[10] = system: bovine cardiac (left ventricular) myofibrils; assay: Cardiac myofibril ATPase assay; type: biochemical; settings: 50 μM compound; for effect on cardiac MF ATPase activity (in words): pCa 8 to pCa 4
Procedure: Rabbit psoas and bovine cardiac myofibrils were prepared as described in our previous study ([17]). An enzyme-coupled, NADH-linked ATPase assay was used to measure skeletal and cardiac myofibril ATPase activity in 96-well microplates at 23 °C. Ionic strength was maintained below 0.2 M, so myofilaments remained insoluble and stable ([32]). To achieve optimal enzymatic activities, buffers for skeletal and cardiac myofibrils differed slightly ([33], [34]): skeletal in 50 mM MOPS, 100 mM KCl, 5 mM MgCl2, 1 mM EGTA, pH 7.0; cardiac in 20 mM MOPS, 35 mM NaCl, 5 mM MgCl2, 1 mM EGTA, pH 7.0. Each well in the microplate contained an assay mix of 0.84 mM phosphoenolpyruvate, 0.17 mM NADH, 10 U/vol pyruvate kinase, 20 U/vol lactate dehydrogenase. The concentration of free Ca^2+ was controlled by EGTA buffering ([35]). Myofibrils were dispensed in microplates with a multichannel pipette and were incubated with assay mix plus compound of interest for 20 min at 23 °C. The concentration of myofibrils used was 0.01 mg/ml for skeletal and 0.05 mg/ml for cardiac myofibrils. The assay was started upon the addition of ATP, at a final concentration of 2.1 mM (total volume to 200 μl), and absorbance was recorded at 340 nm in a SpectraMax Plus microplate spectrophotometer from Molecular Devices. The steady-state myofibrillar ATPase rate was measured from NADH oxidation, measured as the rate of decrease in absorption at 340 nm for 30 min, with absorption data collected every 15 s. All data and statistical analysis of steady-state kinetics were conducted with the OriginPro program. The results were fitted with the Hill equation:(6) […] is the ATPase rate and n is the Hill coefficient. ATPase activity is reported on the μmol ATP/mg protein/min scale. Average data are presented as mean ± SD. Sample means are derived from three different myofibril preps (N = 3), each done in duplicate (n = 6). The effects of compounds on ATPase activity of myofibrils were determined in the presence of 50 μM compound, across a 12-point pCa range from 4.0 (activation) to 8.0 (relaxation). The calcium sensitivity (pCa50) was determined by fitting the curves to the Hill equation. […] The normalized ATPase activity of the selected compounds can be found in Figure 6.

[11] = system: rabbit fast skeletal (psoas) myofibrils; assay: Skeletal myofibril ATPase assay; type: biochemical; settings: 50 μM compound
Procedure: Rabbit psoas and bovine cardiac myofibrils were prepared as described in our previous study ([17]). An enzyme-coupled, NADH-linked ATPase assay was used to measure skeletal and cardiac myofibril ATPase activity in 96-well microplates at 23 °C. Ionic strength was maintained below 0.2 M, so myofilaments remained insoluble and stable ([32]). To achieve optimal enzymatic activities, buffers for skeletal and cardiac myofibrils differed slightly ([33], [34]): skeletal in 50 mM MOPS, 100 mM KCl, 5 mM MgCl2, 1 mM EGTA, pH 7.0; cardiac in 20 mM MOPS, 35 mM NaCl, 5 mM MgCl2, 1 mM EGTA, pH 7.0. Each well in the microplate contained an assay mix of 0.84 mM phosphoenolpyruvate, 0.17 mM NADH, 10 U/vol pyruvate kinase, 20 U/vol lactate dehydrogenase. The concentration of free Ca^2+ was controlled by EGTA buffering ([35]). Myofibrils were dispensed in microplates with a multichannel pipette and were incubated with assay mix plus compound of interest for 20 min at 23 °C. The concentration of myofibrils used was 0.01 mg/ml for skeletal and 0.05 mg/ml for cardiac myofibrils. The assay was started upon the addition of ATP, at a final concentration of 2.1 mM (total volume to 200 μl), and absorbance was recorded at 340 nm in a SpectraMax Plus microplate spectrophotometer from Molecular Devices. The steady-state myofibrillar ATPase rate was measured from NADH oxidation, measured as the rate of decrease in absorption at 340 nm for 30 min, with absorption data collected every 15 s. All data and statistical analysis of steady-state kinetics were conducted with the OriginPro program. The results were fitted with the Hill equation:(6) V=V0+(Vmax/1+10^−n∗^(pCa50−pCa)) where V is the ATPase rate and n is the Hill coefficient.
ATPase activity is reported on the μmol ATP/mg protein/min scale. Average data are presented as mean ± SD. Sample means are derived from three different myofibril preps (N = 3), each done in duplicate (n = 6).
The effects of compounds on ATPase activity of myofibrils were determined in the presence of 50 μM compound, across a 12-point pCa range from 4.0 (activation) to 8.0 (relaxation). The calcium sensitivity (pCa50) was determined by fitting the curves to the Hill equation. In all experiments, a 1% DMSO-only control was included. The normalized ATPase activity of the selected compounds can be found in Figure 6.

| Compound | effect on binding of fC1-C2 (2 µM) to Alexa Fluor 568-actin (1 µM) (in words) [1] | effect on FLT of TMR-MyBP-C, all MyBP-C isoforms (in words) [2] | cC0-C2#P FLT change (% change from DMSO, FLT of TMR-MyBP-C) [3] [%] | cC0-C2/fC1-C2 (ratio of FLT changes) [4] | fC1-C2 FLT change (% change from DMSO, FLT of TMR-MyBP-C) [4] [%] | 473-nm Δτ, Repeat 1 [5] [ns] | 473-nm Δτ, Repeat 2 [5] [ns] | 473-nm z-score (based on avg Δτ) [5] | cC0-C2/cC0-C2#P (ratio of FLT changes) [6] | cC0-C2 FLT change (% change from DMSO, FLT of TMR-MyBP-C) [6] [%] | effect on FLT-FRET / binding between FMAL-actin and TMR-fC1-C2 (in words) [7] | effect on FLT-FRET / binding between FMAL-actin and PKA-phosphorylated TMR-cC0-C2 (in words) [8] | 532-nm Δτ, Repeat 1 (TMR-cC0-C2) [ns] | 532-nm Δτ, Repeat 2 (TMR-cC0-C2) [ns] | 532-nm z-score (based on avg Δτ) (TMR-cC0-C2) | specificity of FLT-FRET effect for unphosphorylated over phosphorylated cC0-C2 [9] | effect on FLT-FRET / binding between FMAL-actin and TMR-cC0-C2 (in words) [9] | effect on Ca^2+-sensitivity of cardiac MF ATPase (in words) [10] | effect on cardiac MF ATPase activity (in words) [10] | other results |
| --- | --- | --- | --- | --- | --- | --- | --- | --- | --- | --- | --- | --- | --- | --- | --- | --- | --- | --- | --- | --- |
| O=C(O)C1=CC(=C(c2ccc(O)c(C(=O)O)c2)c2ccc(O)c(C(=O)O)c2)C=CC1=O [ATA, Aurintricarboxylic acid] | decreased the binding | decreased | – | – | – | – | – | – | – | – | – | – | – | – | – | – | – | – | – | – |
| COc1cc(Nc2ncc(F)c(Nc3ccc4c(n3)N(COP(=O)(O)O)C(=O)C(C)(C)O4)n2)cc(OC)c1OC [Fostamatinib (R788), Fostamatinib] | – | – | 0.7 | 5.8 | 0.4 | 0.110 | 0.046 | 4.40 | 3.3 | 2.3 | decreased | decreased | -0.027 | -0.063 | -2.72 | 5 fold | decreased | – | – | difference in effect on TMR FLT between unphosphorylated TMR-cC0-C2 and TMR-fC1-C2 ([4]; from Table 3): 5.8 fold; effect on FLT of TMR-cC0-C2 (in words) ([6]; concentration-response, no actin): affect; difference in effect on TMR FLT between unphosphorylated and phosphorylated TMR-cC0-C2 ([6]; from Table 3): 3.3 fold |
| O=C(Nc1cccc(C(=O)Nc2ccc(S(=O)(=O)O)c3cc(S(=O)(=O)O)cc(S(=O)(=O)O)c23)c1)Nc1cccc(C(=O)Nc2ccc(S(=O)(=O)O)c3cc(S(=O)(=O)O)cc(S(=O)(=O)O)c23)c1 [NF023] | decreased the binding | increased | – | – | – | – | – | – | – | – | – | – | – | – | – | – | – | affected | affected | – |
| Enoxaparin sodium | – | – | 6.9 | 1.1 | 2.8 | 0.190 | 0.190 | 10.68 | 0.4 | 3.1 | – | – | -0.023 | -0.033 | -1.67 | – | decrease | significant decrease in Ca^2+-sensitivity | reduced at high Ca^2+; also recorded: specific for cardiac myofibril ATPase effects | effect on Ca^2+-sensitivity of skeletal MF ATPase (in words) [11]: negligible; effect on skeletal MF ATPase activity (in words) ([11]; pCa 8 to pCa 4): reduced at high Ca^2+; Ca^2+-sensitivity (pCa50) of cardiac MF ATPase in presence of compound ([10]; 5.77 ± 0.03 in the absence of the drug): 5.55 ± 0.03 |
| Tocofersolan | – | – | 3.2 | 1.2 | 2.8 | -0.166 | -0.159 | -9.06 | 1.0 | 3.3 | affected the binding to actin | no effect | 0.072 | 0.065 | 4.23 | 13–54 fold | affected the binding to actin | – | – | fold effect on increased FRET (or binding) (Table 2) ([9]; comparison not given): fivefold or greater |
